{
  "source": "patent US20080223379A1",
  "about": "“METHODS AND COMPOSITIONS FOR THE TREATMENT OR PROPHYLAXIS OF TENDON AND LIGAMENT INJURY” (DOBAVET GmbH, priority 2007, published 2008)",
  "system": "tendon tissue damaged due to ruptured tendon fibrils and hematoma",
  "test": "Oral calcium dobesilate therapy of tendon damage in horses, sonographic follow-up",
  "type": "in vivo, horse",
  "conditions": "adult horses; 1400 mg with the food twice a day (corresponding to 4 mg/kg body weight/day); four months; sonography after one, two and four months; horses walked",
  "experimental": "Calcium dobesilate was administered with the food in a dose of 1400 mg per adult horse, twice a day each (corresponding to 4 mg/kg body weight/day). The therapy is carried out for four months. Therapy progress is documented sonographically after one month, after two months and after four months. During therapy, the horses are walked.",
  "data": [
    {"smiles": "O=S(=O)([O][Ca][O]S(=O)(=O)c1cc(O)ccc1O)c1cc(O)ccc1O", "note": "[Calcium dobesilate, calcium dobesilate]", "values": [
      {"measurement": "Sonographic therapy progression (structure and density of the tendon in the ultrasound image)", "result": "the tendon sections hypoechogenic at the beginning of therapy show a physiological structure and density of the tendon in the ultrasound image at the end of therapy"}
    ]}
  ]
}
